# Assay results from EP2607478A1, “Phenanthroline treated MSC” (Universiteit Twente, priority 2011, dated 2013).
# Tested on: MSCs
# Test: Whole genome expression analysis (Illumina microarray) of treated MSCs
# Format: cell-based, Human
# Description: MSCs were seeded in T25 flasks at 5000 cells/cm^2 and allowed to attach overnight in proliferation medium. […] After 48 hours, RNA was isolated as described above. From 500 ng of RNA, cRNA was synthesized using the Illumina TotalPrep RNA amplification Kit (Ambion), according to the manufacturer's protocol and the quality of RNA and cRNA was verified on a Bioanalyzer 2100 (Agilent). Microarrays were performed using Illumina HT-12 v4 expression Beadchips, according to the manufacturer's protocol. Briefly, 750 ng of cRNA was hybridized on the array overnight after which the array was washed and blocked. Then, by addition of streptavidin Cy-3 a fluorescent signal was developed. Arrays were scanned on an Illumina iScan reader and raw intensity values were background corrected in GenomeStudio (Illumina). Further data processing and statistical testing were performed with R and Bioconductor statistical software (www.bioconductor.org), using package lumi. Raw intensity values were transformed using variance stabilization and a quantile normalization was performed. A linear modelling approach with empirical Bayesian methods, as implemented in Limma package (54), was applied for differential expression analysis of the resulting probe-level expression values. A gene list, containing only those genes with an absolute 1.5-fold change between different treatments, was uploaded to Ingenuity Pathway Analysis (IPA) software and used for core analysis. Pathways or networks with a p-value of 0.05 were considered statistically significant.
smiles,measurement,setting,value
"c1cnc2c(c1)ccc1cccnc12 [PHE, 1, 10-phenanthroline]",logFC(D142_PHE - D142_BAS) DLX5,ProbeID ILMN_1759598,"-2,28"
same,logFC(D142_PHE - D142_BAS) C4orf18,ProbeID ILMN_1761941,"-2,15"
same,logFC(D142_PHE - D142_BAS) AK3L1,ProbeID ILMN_1764090,"3,40"
same,logFC(D142_PHE - D142_BAS) JARID2,ProbeID ILMN_1764177,"2,12"
same,logFC(D142_PHE - D142_BAS) MUM1,ProbeID ILMN_1764764,"-2,05"
same,logFC(D142_PHE - D142_BAS) OLFML2B,"ProbeID ILMN_1765557, PHE vs BAS","-3,04"
same,logFC(D142_PHE - D142_BAS) LOC399942,"ProbeID ILMN_1765701, PHE vs BAS","-2,98"
same,logFC(D142_PHE - D142_BAS) ENO2,ProbeID ILMN_1765796,"4,72"
same,logFC(D142_PHE - D142_BAS) KCNK2,"ProbeID ILMN_1765990, PHE vs BAS","-2,82"
same,logFC(D142_PHE - D142_BAS) C10orf10,ProbeID ILMN_1767556,"3,71"
same,logFC(D142_PHE - D142_BAS) HIST2H2AC,ProbeID ILMN_1768973,"3,39"
same,logFC(D142_PHE - D142_BAS) ISOC2,ProbeID ILMN_1769158,"-2,08"
same,logFC(D142_PHE - D142_BAS) KRT34,ProbeID ILMN_1770228,"2,77"
same,logFC(D142_PHE - D142_BAS) CNN2,"ProbeID ILMN_1770290, PHE vs BAS","-3,30"
same,logFC(D142_PHE - D142_BAS) ANGPTL2,"ProbeID ILMN_1772612, PHE vs BAS","-2,93"
same,logFC(D142_PHE - D142_BAS) EML3,ProbeID ILMN_1772644,"-2,23"
same,logFC(D142_PHE - D142_BAS) ZNF395,ProbeID ILMN_1772876,"3,66"
same,logFC(D142_PHE - D142_BAS) GAS1,"ProbeID ILMN_1772910, PHE vs BAS","-3,75"
same,logFC(D142_PHE - D142_BAS) C16orf72,ProbeID ILMN_1773407,"2,40"
same,logFC(D142_PHE - D142_BAS) LOC441054,ProbeID ILMN_1774390,"2,68"
same,logFC(D142_PHE - D142_BAS) FBLN2,"ProbeID ILMN_1774602, PHE vs BAS","-2,40"
same,logFC(D142_PHE - D142_BAS) SMOX,ProbeID ILMN_1775380,"2,29"
same,logFC(D142_PHE - D142_BAS) SLC2A3,ProbeID ILMN_1775708,"3,23"
same,logFC(D142_PHE - D142_BAS) BTG1,ProbeID ILMN_1775743,"2,36"
same,logFC(D142_PHE - D142_BAS) MYL9,ProbeID ILMN_1776953,"-2,25"
same,logFC(D142_PHE - D142_BAS) STAT1,ProbeID ILMN_1777325,"-2,01"
same,logFC(D142_PHE - D142_BAS) LOC731007,ProbeID ILMN_1777499,"2,46"
same,logFC(D142_PHE - D142_BAS) KCTD11,ProbeID ILMN_1777513,"3,02"
same,logFC(D142_PHE - D142_BAS) LOC644774,ProbeID ILMN_1779258,"3,09"
same,logFC(D142_PHE - D142_BAS) CPA4,ProbeID ILMN_1784294,"5,44"
same,logFC(D142_PHE - D142_BAS) TUBA4A,ProbeID ILMN_1784300,"2,80"
same,logFC(D142_PHE - D142_BAS) SPOCD1,"ProbeID ILMN_1784948, PHE vs BAS","-3,46"
same,logFC(D142_PHE - D142_BAS) PRKD1,"ProbeID ILMN_1785891, PHE vs BAS","-2,51"
same,logFC(D142_PHE - D142_BAS) UHRF1,ProbeID ILMN_1786065,"-2,25"
same,logFC(D142_PHE - D142_BAS) PSME2,"ProbeID ILMN_1786612, PHE vs BAS","-2,64"
same,logFC(D142_PHE - D142_BAS) MFAP2,ProbeID ILMN_1787981,"-2,29"
same,logFC(D142_PHE - D142_BAS) COL11A1,"ProbeID ILMN_1789507, PHE vs BAS","-3,53"
same,logFC(D142_PHE - D142_BAS) GBE1,ProbeID ILMN_1789702,"2,68"
same,logFC(D142_PHE - D142_BAS) Mar-04,ProbeID ILMN_1789991,"2,06"
same,logFC(D142_PHE - D142_BAS) PRRX2,"ProbeID ILMN_1790338, PHE vs BAS","-2,93"
same,logFC(D142_PHE - D142_BAS) C6orf125,ProbeID ILMN_1790461,"-2,25"
same,logFC(D142_PHE - D142_BAS) LUM,"ProbeID ILMN_1790529, PHE vs BAS","-3,46"
same,logFC(D142_PHE - D142_BAS) CRISPLD2,ProbeID ILMN_1790689,"-2,32"
same,logFC(D142_PHE - D142_BAS) PNMA2,ProbeID ILMN_1790778,"2,46"
same,logFC(D142_PHE - D142_BAS) CXCL12,"ProbeID ILMN_1791447, PHE vs BAS","-3,48"
same,logFC(D142_PHE - D142_BAS) DPYSL4,ProbeID ILMN_1792356,"3,91"
same,logFC(D142_PHE - D142_BAS) TMEM158,ProbeID ILMN_1792455,"3,06"
same,logFC(D142_PHE - D142_BAS) HIST1H2AC,ProbeID ILMN_1792689,"2,10"
same,logFC(D142_PHE - D142_BAS) SERTAD1,ProbeID ILMN_1794017,"2,93"
same,logFC(D142_PHE - D142_BAS) NDUFS8,ProbeID ILMN_1794132,"-2,07"
same,logFC(D142_PHE - D142_BAS) HAS3,"ProbeID ILMN_1794501, PHE vs BAS","-2,42"
same,logFC(D142_PHE - D142_BAS) CAMK2N1,ProbeID ILMN_1794863,"2,88"
same,logFC(D142_PHE - D142_BAS) OKL38,ProbeID ILMN_1795963,"2,72"
same,logFC(D142_PHE - D142_BAS) HIST1H2BK,ProbeID ILMN_1796179,"2,23"
same,logFC(D142_PHE - D142_BAS) GDF5,ProbeID ILMN_1796471,"-2,25"
same,logFC(D142_PHE - D142_BAS) C3orf58,ProbeID ILMN_1797372,"2,45"
same,logFC(D142_PHE - D142_BAS) HMGCS1,ProbeID ILMN_1797728,"-2,20"
same,logFC(D142_PHE - D142_BAS) AK3L1,ProbeID ILMN_1798249,"3,18"
same,logFC(D142_PHE - D142_BAS) CXCR7,ProbeID ILMN_1798360,"2,96"
same,logFC(D142_PHE - D142_BAS) MCM6,ProbeID ILMN_1798654,"-2,31"
same,logFC(D142_PHE - D142_BAS) RARRES1,ProbeID ILMN_1800091,"-2,22"
same,logFC(D142_PHE - D142_BAS) HMOX1,ProbeID ILMN_1800512,"2,82"
same,logFC(D142_PHE - D142_BAS) LDB2,"ProbeID ILMN_1800697, PHE vs BAS","-2,38"
same,logFC(D142_PHE - D142_BAS) PLIN2,ProbeID ILMN_1801077,"3,49"
same,logFC(D142_PHE - D142_BAS) RLF,ProbeID ILMN_1801156,"2,05"
same,logFC(D142_PHE - D142_BAS) SIAH2,ProbeID ILMN_1801313,"2,15"
same,logFC(D142_PHE - D142_BAS) METRNL,ProbeID ILMN_1801610,"2,03"
same,logFC(D142_PHE - D142_BAS) CCNB2,"ProbeID ILMN_1801939, PHE vs BAS","-2,66"
same,logFC(D142_PHE - D142_BAS) GLT8D2,ProbeID ILMN_1802654,"-2,05"
same,logFC(D142_PHE - D142_BAS) FAM162A,ProbeID ILMN_1803647,"2,36"
same,logFC(D142_PHE - D142_BAS) CXCL12,"ProbeID ILMN_1803825, PHE vs BAS","-2,38"
same,logFC(D142_PHE - D142_BAS) VEGFA,ProbeID ILMN_1803882,"4,07"
same,logFC(D142_PHE - D142_BAS) SRXN1,ProbeID ILMN_1804822,"2,32"
same,logFC(D142_PHE - D142_BAS) SLC14A1,"ProbeID ILMN_1805561, PHE vs BAS","-2,57"
same,logFC(D142_PHE - D142_BAS) PFKP,ProbeID ILMN_1805737,"2,32"
same,logFC(D142_PHE - D142_BAS) TK1,ProbeID ILMN_1806037,"-2,14"
same,logFC(D142_PHE - D142_BAS) SLC6A8,ProbeID ILMN_1806349,"2,45"
same,logFC(D142_PHE - D142_BAS) FMO3,"ProbeID ILMN_1808657, PHE vs BAS","-2,85"
same,logFC(D142_PHE - D142_BAS) PGF,ProbeID ILMN_1809813,"3,28"
same,logFC(D142_PHE - D142_BAS) NDRG1,ProbeID ILMN_1809931,"4,06"
same,logFC(D142_PHE - D142_BAS) P8,ProbeID ILMN_1810560,"2,09"
same,logFC(D142_PHE - D142_BAS) KIAA0367,ProbeID ILMN_1810628,"-2,12"
same,logFC(D142_PHE - D142_BAS) PDE5A,"ProbeID ILMN_1810836, PHE vs BAS","-3,04"
same,logFC(D142_PHE - D142_BAS) LOC402221,ProbeID ILMN_1811909,"-2,18"
same,logFC(D142_PHE - D142_BAS) FAM20A,ProbeID ILMN_1812091,"-2,34"
same,logFC(D142_PHE - D142_BAS) HIST1H2BK,ProbeID ILMN_1813314,"2,41"
same,logFC(D142_PHE - D142_BAS) KIAA1199,"ProbeID ILMN_1813704, PHE vs BAS","-4,06"
same,logFC(D142_PHE - D142_BAS) FKSG30,ProbeID ILMN_1814998,"-2,20"
same,logFC(D142_PHE - D142_BAS) PIM1,ProbeID ILMN_1815023,"2,29"
same,logFC(D142_PHE - D142_BAS) PLAGL1,ProbeID ILMN_1815121,"2,24"
same,logFC(D142_PHE - D142_BAS) DHCR7,ProbeID ILMN_1815626,"-2,12"
same,logFC(D142_PHE - D142_BAS) ERCC2,ProbeID ILMN_1815859,"-2,17"
same,logFC(D142_PHE - D142_BAS),"ProbeID ILMN_1816244, no gene name printed","2,02"
